Assay results as given in ChEMBL document CHEMBL3603789, “N-Lipidated Peptide Dimers: Effective Antibacterial Agents against Gram-Negative Pathogens through Lipopolysaccharide Permeabilization” (J Med Chem, 2015).
In brackets after ≈: the same amount, converted by molar mass. Activity calls are given as the source filed them. The rule behind the calls is not given here. Bridge positions count the residues as written; N and C are the ends. Peptide text beside a SMILES is read from it. I, II: the chains in the order shown. * marks the point of attachment. Octanoyl = CCCCCCCC(=O)*; Butyryl = CCCC(=O)*

Key:
[1] = Toxicity in New Zealand white rabbit erythrocytes assessed as hemolytic activity after 60 mins; type: cell-based, Oryctolagus cuniculus; details: erythrocyte, 1 h
[2] = test system: Klebsiella pneumoniae; experiment: Antibacterial activity against Klebsiella pneumoniae DM4299 after 24 hrs by broth microdilution method; type: functional; details: DM4299, 24 h
[3] = test system: Pseudomonas aeruginosa; experiment: Antibacterial activity against Pseudomonas aeruginosa DM23155 after 24 hrs by broth microdilution method; type: functional; details: DM23155, 24 h
[4] = test system: Escherichia coli; experiment: Antibacterial activity against Escherichia coli ATCC 25922 after 24 hrs by broth microdilution method; type: functional; details: ATCC 25922, 24 h
[5] = test system: Lipopolysaccharide (LPS); experiment: Displacement of dansylcadaverine from Escherichia coli 0111:B4 LPS at 15 to 30 uM after 5 mins by high-throughput fluorescence displacement assay
[6] = test system: Lipopolysaccharide (LPS); experiment: Induction of Escherichia coli 0111:B4 LPS neutralization using p-nitroaniline assessed as concentration required to neutralize 50% after 1 hr by limulus amebocyte lysate assay
[7] = test system: Lipopolysaccharide (LPS); experiment: Induction of Pseudomonas aeruginosa serotype 10 LPS neutralization using p-nitroaniline assessed as concentration required to neutralize 50% after 1 hr by limulus amebocyte lysate assay
[8] = test system: Pseudomonas aeruginosa; experiment: Induction of 1-N-phenylnaphthylamine uptake in Pseudomonas aeruginosa DM23155 at 400 uM after 1 hr by fluorescence assay relative to polymyxin B; type: functional
[9] = test system: Pseudomonas aeruginosa; experiment: Antibacterial activity against Pseudomonas aeruginosa DR18531 after 24 hrs by broth microdilution method; type: functional; details: DR18531, 24 h
[10] = test system: Pseudomonas aeruginosa; experiment: Antibacterial activity against Pseudomonas aeruginosa DM4150R after 24 hrs by broth microdilution method; type: functional
[11] = test system: Pseudomonas aeruginosa; experiment: Antibacterial activity against Pseudomonas aeruginosa DM23257 after 24 hrs by broth microdilution method; type: functional; details: DM23257, 24 h
[12] = test system: Pseudomonas aeruginosa; experiment: Antibacterial activity against Pseudomonas aeruginosa DM23376 after 24 hrs by broth microdilution method; type: functional; details: DM23376, 24 h
[13] = test system: Pseudomonas aeruginosa; experiment: Antibacterial activity against Pseudomonas aeruginosa DU14476 after 24 hrs by broth microdilution method; type: functional; details: DU14476, 24 h
[14] = test system: Pseudomonas aeruginosa; experiment: Antibacterial activity against Pseudomonas aeruginosa DR5790 after 24 hrs by broth microdilution method; type: functional; details: DR5790, 24 h
[15] = test system: Pseudomonas aeruginosa; experiment: Antibacterial activity against Pseudomonas aeruginosa DR4877 after 24 hrs by broth microdilution method; type: functional; details: DR4877, 24 h
[16] = test system: Pseudomonas aeruginosa; experiment: Antibacterial activity against Pseudomonas aeruginosa ATCC 9027 after 24 hrs by broth microdilution method; type: functional; details: ATCC 9027, 24 h
[17] = test system: Pseudomonas aeruginosa; experiment: Antibacterial activity against Pseudomonas aeruginosa ATCC 27853 after 24 hrs by broth microdilution method; type: functional; details: ATCC 27853, 24 h
[18] = test system: Escherichia coli; experiment: Antibacterial activity against Escherichia coli DS17232 after 24 hrs by broth microdilution method; type: functional; details: DS17232, 24 h
[19] = test system: Escherichia coli; experiment: Antibacterial activity against Escherichia coli DM17528 after 24 hrs by broth microdilution method; type: functional; details: DM17528, 24 h
[20] = test system: Klebsiella pneumoniae; experiment: Antibacterial activity against Klebsiella pneumoniae DS07955 after 24 hrs by broth microdilution method; type: functional; details: DS07955, 24 h
[21] = test system: Klebsiella pneumoniae; experiment: Antibacterial activity against Klebsiella pneumoniae DS16260 after 24 hrs by broth microdilution method; type: functional; details: DS16260, 24 h
[22] = test system: Klebsiella pneumoniae; experiment: Antibacterial activity against Klebsiella pneumoniae DU31158 after 24 hrs by broth microdilution method; type: functional; details: DU31158, 24 h
[23] = test system: Klebsiella pneumoniae; experiment: Antibacterial activity against Klebsiella pneumoniae DB55301 after 24 hrs by broth microdilution method; type: functional; details: DB55301, 24 h
[24] = test system: Pseudomonas aeruginosa; experiment: Induction of cytoplasmic membrane depolarization in Pseudomonas aeruginosa DM23155 at 4 times MIC after 1 hr by fluorescence assay; type: functional, organism-based
[25] = test system: Pseudomonas aeruginosa; experiment: Induction of cytoplasmic membrane disruption in Pseudomonas aeruginosa DM23155 assessed as membrane integrity at 1 to 2 times MIC after 1 hr by fluorescence assay; type: functional
[26] = Induction of calcein leakage from DOPE/DOPG artificial membrane at 1:32 ratio of compound to lipid by fluorescence assay; type: physicochemical
[27] = Induction of calcein leakage from DOPC artificial membrane at 1:32 ratio of compound to lipid by fluorescence assay; type: physicochemical
[28] = test system: Pseudomonas aeruginosa; experiment: Antibacterial activity against Pseudomonas aeruginosa DM23155 assessed as log reduction of viable count at 2 times MIC after 30 mins by time-kill assay relative to control; type: functional
[29] = test system: Pseudomonas aeruginosa; experiment: Antibacterial activity against Pseudomonas aeruginosa DM23155 assessed as log reduction of viable count MIC up to 24 hrs by time-kill assay; type: functional, organism-based
[30] = test system: Pseudomonas aeruginosa; experiment: Antibacterial activity against Pseudomonas aeruginosa DM23155 assessed as log reduction of viable count at 2 times MIC after 24 hrs by time-kill assay; type: functional, organism-based
[31] = Toxicity in human corneal fibroblasts assessed as cell viability at > 2000 uM after 4 hrs by ATP luminescent assay; type: cell-based; details: fibroblast
[32] = Toxicity in human corneal fibroblasts assessed as cell viability at > 2000 uM after 4 hrs by LDH assay; type: cell-based; details: fibroblast
[33] = test system: Mus musculus; experiment: Corneal toxicity in mouse at 1 to 3 mg/ml applied topically 5 times per day measured 24 hrs after last dose; type: organism-based; details: in vivo, topical_or_ocular
[34] = test system: Mus musculus; experiment: Corneal toxicity in mouse at 6.25 mg/kg, iv measured 24 hrs after last dose; type: organism-based; details: in vivo
[35] = test system: Mus musculus; experiment: Corneal toxicity in mouse at 100 mg/kg, ip measured 24 hrs after last dose; type: organism-based; details: in vivo
[36] = test system: Pseudomonas aeruginosa; experiment: Antibacterial activity against Pseudomonas aeruginosa DM23155 after 24 hrs by checkerboard assay in presence of nalidixic acid; type: functional
[37] = test system: Pseudomonas aeruginosa; experiment: Antibacterial activity against Pseudomonas aeruginosa DM23155 after 24 hrs by checkerboard assay in presence of gentamicin; type: functional
[38] = test system: Pseudomonas aeruginosa; experiment: Antibacterial activity against Pseudomonas aeruginosa DM23155 after 24 hrs by checkerboard assay in presence of erythromycin; type: functional
[39] = test system: Pseudomonas aeruginosa; experiment: Antibacterial activity against Pseudomonas aeruginosa DM23155 after 24 hrs by checkerboard assay in presence of streptomycin; type: functional
[40] = test system: Pseudomonas aeruginosa; experiment: Antibacterial activity against Pseudomonas aeruginosa DM23155 after 24 hrs by checkerboard assay in presence of kanamycin; type: functional
[41] = test system: Escherichia coli; experiment: Antibacterial activity against Escherichia coli ATCC 25922 after 24 hrs by checkerboard assay in presence of nalidixic acid; type: functional
[42] = test system: Escherichia coli; experiment: Antibacterial activity against Escherichia coli ATCC 25922 after 24 hrs by checkerboard assay in presence of gentamicin; type: functional
[43] = test system: Escherichia coli; experiment: Antibacterial activity against Escherichia coli ATCC 25922 after 24 hrs by checkerboard assay in presence of erythromycin; type: functional
[44] = test system: Escherichia coli; experiment: Antibacterial activity against Escherichia coli ATCC 25922 after 24 hrs by checkerboard assay in presence of streptomycin; type: functional
[45] = test system: Escherichia coli; experiment: Antibacterial activity against Escherichia coli ATCC 25922 after 24 hrs by checkerboard assay in presence of kanamycin; type: functional

Molecule CCCC(=O)N[C@@H](CCCNC(=N)N)C(=O)NCC(=O)N[C@@H](CCCNC(=N)N)C(=O)N[C@@H](CCCCN)C(=O)NCC(=O)NCC(=O)N[C@@H](CCCNC(=N)N)C(=O)N[C@@H](CCCNC(=N)N)C(=O)NCCCC[C@H](NC(=O)[C@H](CCCNC(=N)N)NC(=O)[C@H](CCCNC(=N)N)NC(=O)CNC(=O)CNC(=O)[C@H](CCCCN)NC(=O)[C@H](CCCNC(=N)N)NC(=O)CNC(=O)[C@H](CCCNC(=N)N)NC(=O)CCC)C(=O)N[C@@H](CCCCN)C(=O)O (I: Butyryl-RGRKGGRRKK-OH / II: Butyryl-RGRKGGRR; amide I:9-II:C) has an HC10 [1] of over 10000 µg/mL, an MIC [2] of 6 µM (≈ 13.6 µg/mL) and an MIC [3] of 6 µM (≈ 13.6 µg/mL). It also gave an MIC [4] of 3 µM (≈ 6.79 µg/mL), an Activity [5] of 72.4% and an EC50 [6] of 769 µM. It also gave an EC50 [7] of 345 µM and an Activity [8] of 2.5%.
Molecule CCCCCCCC(=O)N[C@@H](CCCNC(=N)N)C(=O)NCC(=O)N[C@@H](CCCNC(=N)N)C(=O)N[C@@H](CCCCN)C(=O)N[C@H](C(=O)N[C@H](C(=O)N[C@@H](CCCNC(=N)N)C(=O)N[C@@H](CCCNC(=N)N)C(=O)NCCCC[C@H](NC(=O)[C@H](CCCNC(=N)N)NC(=O)[C@H](CCCNC(=N)N)NC(=O)[C@@H](NC(=O)[C@@H](NC(=O)[C@H](CCCCN)NC(=O)[C@H](CCCNC(=N)N)NC(=O)CNC(=O)[C@H](CCCNC(=N)N)NC(=O)CCCCCCC)C(C)C)C(C)C)C(=O)N[C@@H](CCCCN)C(=O)O)C(C)C)C(C)C (I: Octanoyl-RGRKVVRRKK-OH / II: Octanoyl-RGRKVVRR; amide I:9-II:C) has an HC10 [1] of over 10000 µg/mL, an MIC [2] of 3 µM (≈ 7.63 µg/mL) and an MIC [3] of 3 µM (≈ 7.63 µg/mL). The MIC [4] was 6 µM (≈ 15.3 µg/mL), the MIC [9] was 1.5 µM (≈ 3.81 µg/mL) and the MIC [10] was 3 µM (≈ 7.63 µg/mL). For the same molecule, the MIC [11] was 3 µM (≈ 7.63 µg/mL), the MIC [12] was 3 µM (≈ 7.63 µg/mL) and the MIC [13] was 3 µM (≈ 7.63 µg/mL). The MIC [14] was 3 µM (≈ 7.63 µg/mL), the MIC [15] was 3 µM (≈ 7.63 µg/mL) and the MIC [16] was 3 µM (≈ 7.63 µg/mL). It also gave an MIC [17] of 3 µM (≈ 7.63 µg/mL), an MIC [18] of 10 µM (≈ 25.4 µg/mL) and an MIC [19] of 10 µM (≈ 25.4 µg/mL). It also gave an MIC [20] of 10 µM (≈ 25.4 µg/mL), an MIC [21] of 3 µM (≈ 7.63 µg/mL) and an MIC [22] of 10 µM (≈ 25.4 µg/mL). The MIC [23] was 10 µM (≈ 25.4 µg/mL), the Activity [5] was 121% and the EC50 [6] was 73.4 µM. For the same molecule, the Activity [24] was “Active”, the Activity [25] was over 80% and the Activity [26] was “Active”. The Activity [27] was “Active”, the FC [28] was 3 and the Activity [29] was “Dose-dependent effect”. For the same molecule, the Activity [30] was “Active”, the Activity [31] was over 2000 µM and the Activity [32] was over 2000 µM. The Activity [33] was “Non-toxic”, the Activity [34] was “Non-toxic” and the Activity [35] was “Non-toxic”. The “fractional inhibitory concentration index (FICI)” value [36] was 0.5, the “fractional inhibitory concentration index (FICI)” value [37] was 0.38 and the “fractional inhibitory concentration index (FICI)” value [38] was 0.56. The “fractional inhibitory concentration index (FICI)” value [39] was 0.56, the “fractional inhibitory concentration index (FICI)” value [40] was 0.56 and the “fractional inhibitory concentration index (FICI)” value [41] was 0.5. The “fractional inhibitory concentration index (FICI)” value [42] was 0.31, the “fractional inhibitory concentration index (FICI)” value [43] was 0.56 and the “fractional inhibitory concentration index (FICI)” value [44] was 0.31. For the same molecule, the “fractional inhibitory concentration index (FICI)” value [45] was 0.31.
